Results from PubChem BioAssay (NCI).
Values joined by “and” are separate entries in the source; they are usually repeats but may differ in a detail not shown here. Equal values may be shown once.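 Where inhibition never reached the appropriate level, the endpoint shown equals the highest concentration tested. Otherwise, values were interpolated linearly from a five-concentration, 48-hour dose response in 96-well plates. GI50 marks 50% less growth. TGI is the concentration that stops growth completely.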

How the values were obtained:
Assay in all cases: DTP human tumour cell line panel, 48 h
[1] = tested on: HOP-92 NSCLC
[2] = tested on: HS 578T breast
[3] = tested on: NCI-H23 lung
[4] = tested on: NCI-H522 lung
[5] = tested on: OVCAR-3 ovarian
[6] = tested on: SF-295 CNS
[7] = tested on: SK-MEL-5 melanoma
[8] = tested on: T-47D breast
[9] = tested on: UACC-62 melanoma
[10] = tested on: UO-31 renal

## CC(=O)N(C)c1cc(NCc2ccccc2)ccc1OCc1ccccc1
[1]
  TGI: 30 µM
[2]
  TGI: 91 µM
[3]
  TGI: 57.1 µM
[4]
  TGI: 34 µM
[5]
  TGI: 32.8 µM
[6]
  TGI: 29.6 µM
[7]
  TGI: 33.8 µM
[8]
  TGI: > 100 µM
[9]
  TGI: 31.8 µM
[10]
  TGI: 28 µM

## O=C(O)c1ccc(NCc2nc3ccccc3[nH]2)cc1
[1]
  GI50: > 100 µM
  TGI: > 100 µM
[2]
  GI50: > 100 µM
  TGI: > 100 µM
[3]
  GI50: > 100 µM
  TGI: > 100 µM
[4]
  GI50: > 100 µM
  TGI: > 100 µM
[5]
  GI50: > 100 µM
  TGI: > 100 µM
[6]
  GI50: > 100 µM
  TGI: > 100 µM
[7]
  GI50: > 100 µM
  TGI: > 100 µM
[8]
  GI50: > 100 µM
  TGI: > 100 µM
[9]
  GI50: > 100 µM
  TGI: > 100 µM
[10]
  GI50: > 100 µM
  TGI: > 100 µM

## CC(=O)OC1CC2C(C)(C)CCC[C@]2(C)C2=C1C(O)=C(C(C)C)C(=O)C2=O (stereo partly specified)
[1]
  GI50: 0.123 µM
  TGI: 0.547 µM
[2]
  GI50: 0.532 µM
  TGI: > 20.4 µM
[3]
  GI50: 0.704 µM
  TGI: 2.98 µM
[4]
  GI50: 1.65 µM
  TGI: 3.42 µM
[5]
  GI50: 1.52 µM
  TGI: 4.53 µM
[6]
  GI50: 0.644 µM
  TGI: 2.57 µM
[7]
  GI50: 0.174 µM
  TGI: 0.343 µM
[8]
  GI50: 0.739 µM
  TGI: 4.98 µM
[9]
  GI50: 0.323 µM
  TGI: 1.42 µM
[10]
  GI50: 0.638 µM
  TGI: 2.06 µM

## C[C@@H]1CC[C@H]2[C@@H](C)C(OC/C=C/COC3O[C@@H]4O[C@@]5(C)CC[C@H]6[C@H](C)CC[C@@H]([C@H]3C)[C@@]46OO5)O[C@@H]3O[C@@]4(C)CC[C@@H]1[C@]32OO4 (stereo partly specified)
[1]
  GI50: < 0.0179 µM
  TGI: 45.4 µM
[2]
  GI50: 0.0311 µM
  TGI: > 74.9 µM
[3]
  GI50: < 0.01 µM
  TGI: 18.5 µM
[4]
  GI50: 0.0898 µM
  TGI: > 100 µM
[5]
  GI50: < 0.0109 µM
  TGI: 1.07 µM
[6]
  GI50: < 0.0252 µM
[7]
  GI50: 0.0491 µM
  TGI: 18.6 µM
[8]
  GI50: < 0.01 µM
  TGI: > 100 µM
[9]
  GI50: 0.0363 µM
  TGI: > 100 µM
[10]
  GI50: 0.152 µM
  TGI: > 92.9 µM

## CS(=O)(=O)O[C@H]1C(=O)N(c2cc3c4ccccc4ccc3c3ccccc23)[C@@H]1c1ccccn1
[1]
  GI50: 0.395 µM
  TGI: 56.3 µM
[2]
  GI50: 0.428 µM
  TGI: > 100 µM
[3]
  GI50: 0.981 µM
  TGI: > 100 µM
[4]
  GI50: 0.573 µM
  TGI: > 100 µM
[5]
  GI50: 0.411 µM
  TGI: 14.9 µM
[6]
  GI50: 0.291 µM
  TGI: 11.8 µM
[7]
  GI50: 0.3 µM
  TGI: 3.35 µM
[8]
  GI50: 0.44 µM
  TGI: > 100 µM
[9]
  GI50: 0.347 µM
  TGI: > 100 µM
[10]
  GI50: 0.76 µM
  TGI: > 100 µM

## C=C1C[C@@H](O)[C@@H](Br)C(C)(C)[C@]12CCC(C)(Br)C(Cl)C2 (stereo partly specified)
[1]
  GI50: 20.3 µM
  TGI: > 50 µM and 39.3 µM
[2]
  GI50: 29.9 µM
  TGI: > 50 µM and 96.4 µM
[3]
  GI50: 18.7 µM
  TGI: > 50 µM and 37.5 µM
[4]
  GI50: 17.4 µM
  TGI: > 50 µM and 32.1 µM
[5]
  GI50: 17.4 µM
  TGI: > 50 µM and 33.7 µM
[6]
  GI50: 17.9 µM
  TGI: > 50 µM and 34.9 µM
[7]
  GI50: 16.7 µM
  TGI: > 50 µM and 30.3 µM
[8]
  GI50: 19 µM
  TGI: > 50 µM and 49.3 µM
[9]
  GI50: 15.6 µM
  TGI: > 50 µM and 29.3 µM
[10]
  GI50: 25.4 µM
  TGI: > 50 µM and 43.7 µM

## CON=C1C[C@]2(C[C@@H]3C[C@@H](C/C=C(\C)C[C@@H](C)/C=C/C=C4\CO[C@@H]5[C@H](O)C(C)=C[C@@H](C(=O)O3)[C@]45O)O2)O[C@H](/C(C)=C/C(C)C)[C@H]1C
[1]
  GI50: 1.99 µM
  TGI: 11.8 µM
[2]
  GI50: 16.6 µM
  TGI: 39.6 µM
[3]
  GI50: 12.6 µM
  TGI: 28.4 µM
[4]
  GI50: 12 µM
  TGI: 26.1 µM
[5]
  GI50: 4.45 µM
  TGI: 15.8 µM
[6]
  GI50: 9.16 µM
  TGI: 22 µM
[7]
  GI50: 15.4 µM
  TGI: 29.1 µM
[8]
  GI50: 8.9 µM
  TGI: 22.2 µM
[9]
  GI50: 14.4 µM
  TGI: 29.6 µM
[10]
  GI50: 11.2 µM
  TGI: 23.3 µM

## Nc1nc(=S)c2ncn(C3OC(CO)C(O)C3O)c2[nH]1 (stereo unspecified)
[1]
  GI50: 0.33 µM
  TGI: 7.53 µM
[2]
  GI50: 2.27 µM
  TGI: > 86.1 µM
[3]
  GI50: 0.776 µM
  TGI: > 100 µM
[4]
  GI50: 1.8 µM
  TGI: > 100 µM
[5]
  GI50: 0.851 µM
[6]
  GI50: 0.531 µM
  TGI: > 100 µM
[7]
  GI50: 2.41 µM
  TGI: 10.8 µM
[8]
  GI50: 0.511 µM
  TGI: 83.3 µM
[9]
  GI50: 0.446 µM
  TGI: 5.67 µM
[10]
  GI50: 0.77 µM
  TGI: > 100 µM

## Cc1ccc(/C=C(/C#N)n2nnc3ncccc32)cc1
[1]
  GI50: 1.82 µM
  TGI: 6.19 µM
[2]
  GI50: 2.95 µM
  TGI: > 100 µM
[3]
  GI50: 3.09 µM
  TGI: 17.9 µM
[4]
  GI50: 0.255 µM
  TGI: 0.878 µM
[5]
  GI50: 0.801 µM
  TGI: 3.74 µM
[6]
  GI50: 3.77 µM
  TGI: 16.2 µM
[7]
  GI50: 2.89 µM
  TGI: 12.8 µM
[8]
  GI50: 1.92 µM
  TGI: 15.8 µM
[9]
  GI50: 3.2 µM
  TGI: 15.8 µM
[10]
  GI50: 2.01 µM
  TGI: 12.4 µM

## Cc1cc(O[C@@H]2O[C@@H](C)[C@H](O)[C@@H](O)[C@H]2O)c2c3c(c(O[C@@H]4O[C@@H](C)[C@H](O)[C@@H](O)[C@H]4O)cc2c1)C(=O)c1c(O)cccc1C3=O
[1]
  GI50: > 30 µM
  TGI: > 30 µM
[2]
  GI50: > 30 µM
  TGI: > 30 µM
[3]
  GI50: > 30 µM
  TGI: > 30 µM
[5]
  GI50: > 30 µM
  TGI: > 30 µM
[6]
  GI50: > 30 µM
  TGI: > 30 µM
[7]
  GI50: > 30 µM
  TGI: > 30 µM
[8]
  GI50: > 30 µM
  TGI: > 30 µM
[9]
  GI50: > 30 µM
  TGI: > 30 µM
[10]
  GI50: > 30 µM
  TGI: > 30 µM
